Measurements taken from PubChem BioAssay (NCI).
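Assay format: 96-well plates, 48-hour exposure. At the GI50, growth is halved. TGI is the concentration that stops growth completely.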

Key:
Assay in all cases: NCI-60 cell line screen, 48 h
[1] = system: 786-0 renal
[2] = system: MCF7 breast
[3] = system: OVCAR-3 ovarian
[4] = system: OVCAR-5 ovarian
[5] = system: SF-539 CNS
[6] = system: SN12C renal
[7] = system: U251 CNS
[8] = system: UO-31 renal
[9] = system: CAKI-1 renal
[10] = system: IGROV1 ovarian

SMILES	GI50 [1] [µM]	TGI [1] [µM]	GI50 [2] [µM]	TGI [2] [µM]	GI50 [3] [µM]	TGI [3] [µM]	GI50 [4] [µM]	TGI [4] [µM]	GI50 [5] [µM]	TGI [5] [µM]	GI50 [6] [µM]	TGI [6] [µM]	GI50 [7] [µM]	TGI [7] [µM]	GI50 [8] [µM]	TGI [8] [µM]	TGI [9] [µM]	TGI [10] [µM]	GI50 [10] [µM]	GI50 [9] [µM]
Cc1cc(S(=O)(=O)/N=C(\N)n2nc(C)c(C)c2C)c(SCc2ccccc2)cc1Cl	> 100	> 100	5.12	> 100	46.4	> 100	> 100	> 100	> 100	> 100	> 100	> 100	7.47	> 100	4.57	> 100	–	–	–	–
O=C1CC(c2ccccc2)NCN1 (stereo not drawn)	–	> 100	–	–	–	> 100	–	> 100	–	–	–	> 100	–	> 100	–	> 100	> 100	> 100	–	–
COc1ccc(/C(Cl)=C(\C=O)c2cc(OC)c(OC)c(OC)c2)cc1OC	–	> 100	–	–	–	> 100	–	> 100	–	87.9	–	> 100	–	> 61.2	–	> 100	> 100	> 100	–	–
Nc1c(C(=O)Nc2cccc3ccccc23)sc2nc3c(cc12)CCCCC3	0.443	> 50	0.168	> 50	0.542	> 50	2.48	> 50	0.458	> 50	2.26	> 50	0.998	> 50	1.91	> 50	–	> 50	1.9	–
CNC(=O)c1ccc(Nc2nc(OC3CCCC3)c3c(-c4ccc5nc(C)oc5c4)c[nH]c3n2)c(OC)c1	> 43.4	> 100	0.252	> 100	0.427	> 44.6	64.2	> 100	0.332	> 100	1.32	> 100	15.3	> 100	2.97	> 100	> 100	> 100	0.448	0.448
NC(=S)N/N=C1\C(=O)N(c2cccc([N+](=O)[O-])c2)C(=O)C1C(=O)Nc1cccc([N+](=O)[O-])c1 (stereo not drawn)	–	> 100	–	–	–	> 100	–	> 100	–	> 100	–	> 100	–	> 100	–	> 100	> 100	> 100	–	–
CCCN1C(=O)/C(=C/c2ccc(O)cc2)SC1=Nc1ccccc1	20.5	36.9	–	–	17.8	33.8	21.7	44.2	–	–	18.4	35.5	15.6	29	38.3	> 100	38.8	> 100	38	21.6
CO/C=C/c1cc2c(cc1C(OC)OC)OCO2	–	> 100	–	–	–	80.9	–	> 100	–	> 100	–	> 100	–	> 100	–	> 100	> 100	> 100	–	–
N#Cc1c(C(N)=O)ncn1Cc1ccccc1	–	> 100	–	–	–	> 100	–	> 100	–	> 100	–	> 100	–	> 100	–	> 100	> 100	> 100	–	–
Cn1cc(C(=O)/C(Cl)=C(\Cl)C(=O)O)c2ccccc21	–	> 100	–	–	–	> 100	–	> 100	–	> 100	–	–	–	> 100	–	> 100	> 100	> 100	–	–
CCCCCCCCO/N=C\c1c2c(O)c3c(O)c(C)c4c(c3c1O)C(=O)C(C)(O/C=C\C(OC)C(C)C(OC(C)=O)C(C)C(O)C(C)C(O)C(C)/C=C\C=C(\C)C(=O)N2)O4 (stereo not drawn)	1.13	2.77	1.36	5.12	0.96	2.18	2.12	8.08	2.74	9.75	2.39	9.22	1.14	3.03	–	–	5.04	–	–	1.33
CCN(CC)CCCN1C(=O)c2c(c(C)c3c(oc4cc(O)ccc43)c2C)C1=O	1.8	3.43	–	–	1.79	3.27	1.72	3.22	1.77	3.18	1.81	3.41	1.74	3.2	1.66	3.09	3.05	3.4	1.74	1.62
Cc1ccc(NC(=O)/C(=N/NC(=O)CC#N)C2C(=O)N(c3ccccc3)N=C2N)cc1C (stereo not drawn)	–	> 100	–	–	–	> 100	–	> 100	–	> 100	–	> 100	–	> 100	–	> 100	> 100	> 100	–	–
COC1=CC(C)C2C[C@H]3O[C@H](O)C[C@H]4C(C)C(=O)C(O)C([C@@]2(C)C1=O)[C@@]34C (stereo partly drawn)	–	> 100	–	–	–	> 100	–	–	–	> 100	–	> 100	–	–	–	> 100	> 100	> 100	–	–
Cc1cccc(Oc2ccc(Nc3ncnc4ccc(NC(=O)CN5CCN(C)CC5)cc34)cc2Cl)c1	1.59	2.99	1.51	2.99	1.42	2.99	1.66	3.2	1.73	3.19	1.72	3.44	–	–	1.1	2.35	2.66	2.38	0.673	1.19
C=C1C(=O)O[C@H]2[C@H]1CC/C(COC(=O)N[C@@H](Cc1c[nH]c3ccccc13)C(=O)OC)=C\CC[C@@]1(C)O[C@@H]21	1.48	2.92	–	–	1.24	2.69	2.02	4.92	1.45	2.92	1.37	3.1	2.42	7.32	1.45	2.76	2.89	2.67	1.22	1.2
